≈ marks a conversion by molar mass, not a printed value.
Columns and labels:
[1] = target: CYP1A2 (Homo sapiens (Human), UniProt P05177); test: Human Cytochrome P450 Inhibition Assay (Bactosomes); format: in vitro ADME; conditions: recombinant enzyme
Protocol: (§1) The ability of test compounds to inhibit five of the most relevant cytochrome P450 enzymes was measured by determination of the activity of cytochrome P450 enzymes in recombinant cytochrome preparations, called Bactosomes (Cypex Ltd, Dundee, Scotland UK DD2 1 NH), in the presence of a specific probe substrate. Bactosomes are a highly efficient and cost-effective source of recombinant CYP450s which have a higher specific activity of enzyme compared to other sources, such as liver microsomes. […] The following CYP450 isoforms were assayed: CYP1A2, CYP2C9, CYP2C19, CYP2D6 and CYP3A4. The study of CYP450 inhibition potential in Bactosomes is accepted as a valuable model permitting rapid prediction of potential drug-drug interactions in vivo (see, e.g., Weaver et al., 2003).
(§2) Bactosomes were obtained from a commercial source (Cypex, Scotland, UK). Test compounds were incubated with Bactosomes at 6 concentrations. Samples were incubated for 10 minutes, after which the reaction was stopped and the samples analysed by LC-MS/MS Multiple Reaction Monitoring (MRM) for the presence/amount of substrate probe.
(§3) CYP450 enzymes (final protein 75 pmol/mL for CYP1A2; 12.5 pmol/mL for CYP2C19; and 25 pmol/mL for CYP2C9, 2D6 and 3A4), 0.1 M phosphate buffer pH 7.4, probe and test compound (final concentration 50, 15.8, 5, 1.58, 0.5 and 0.158 μM; diluted from 10 mM stock solution to give a final DMSO concentration of 1%) were pre-incubated at 37° C. for 5 minutes. The reaction was initiated by the addition of 20 μL of 10 mM NADPH in phosphate buffer. The final incubation volume was 200 μL. The following control inhibitors were used for each CYP450 inhibition assay: CYP1A2: α-naphthoflavone; CYP2C9: sulfaphenazole; CYP2C19: tranylcypromine; CYP2D6: quinidine; CYP3A4: ketoconazole.
(§4) Each compound was incubated for 10 minutes at 37° C. The reactions were stopped by the addition of methanol (final composition 1:1, aqueous: methanol). The incubation plates were shaken, chilled at […] for 2 hours, and centrifuged at 3500 rpm for 15 minutes at 4° C. to precipitate the protein.

[2] = target: CYP2C19 (Homo sapiens (Human), UniProt P33261); test: as above; format: in vitro ADME; conditions: recombinant Bactosomes, 10 minutes
CYP2C19, sequence (P33261 whole entry): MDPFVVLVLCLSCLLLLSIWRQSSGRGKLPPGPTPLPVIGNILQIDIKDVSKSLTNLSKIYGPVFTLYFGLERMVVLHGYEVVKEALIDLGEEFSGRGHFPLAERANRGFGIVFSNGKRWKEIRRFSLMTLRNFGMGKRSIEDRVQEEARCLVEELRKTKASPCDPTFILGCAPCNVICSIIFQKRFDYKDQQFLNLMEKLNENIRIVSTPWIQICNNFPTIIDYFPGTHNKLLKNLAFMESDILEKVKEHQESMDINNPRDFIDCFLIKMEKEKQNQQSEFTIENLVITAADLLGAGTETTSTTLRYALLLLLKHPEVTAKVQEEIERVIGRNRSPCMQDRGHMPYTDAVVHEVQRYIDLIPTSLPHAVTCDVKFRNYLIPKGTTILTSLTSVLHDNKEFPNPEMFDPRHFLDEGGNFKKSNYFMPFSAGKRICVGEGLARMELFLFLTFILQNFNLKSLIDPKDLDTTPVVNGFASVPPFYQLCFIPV
Protocol: as §1, §2, §3, §4

[3] = target: CYP2C9 (Homo sapiens (Human), UniProt P11712); test: as above; format: in vitro ADME; conditions: recombinant Bactosomes, 10 minutes
CYP2C9, sequence (P11712 whole entry): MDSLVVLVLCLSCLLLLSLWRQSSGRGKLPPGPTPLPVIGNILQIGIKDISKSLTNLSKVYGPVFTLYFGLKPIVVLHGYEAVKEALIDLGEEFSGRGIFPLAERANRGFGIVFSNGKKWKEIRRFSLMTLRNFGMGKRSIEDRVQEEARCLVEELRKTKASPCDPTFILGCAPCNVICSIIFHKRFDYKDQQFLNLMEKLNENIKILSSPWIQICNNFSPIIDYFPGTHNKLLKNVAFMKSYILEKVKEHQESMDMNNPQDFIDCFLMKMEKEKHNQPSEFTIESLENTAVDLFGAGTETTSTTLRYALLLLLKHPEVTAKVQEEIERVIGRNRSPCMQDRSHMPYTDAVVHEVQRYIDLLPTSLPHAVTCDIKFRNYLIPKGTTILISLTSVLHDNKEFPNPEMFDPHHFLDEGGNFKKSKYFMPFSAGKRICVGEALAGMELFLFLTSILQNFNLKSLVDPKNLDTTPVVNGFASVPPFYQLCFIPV
Protocol: as §1, §2, §3, §4

[4] = target: CYP2D6 (Homo sapiens (Human), UniProt P10635); test: as above; format: in vitro ADME; conditions: recombinant Bactosomes, 10 minutes
CYP2D6, sequence (P10635 whole entry): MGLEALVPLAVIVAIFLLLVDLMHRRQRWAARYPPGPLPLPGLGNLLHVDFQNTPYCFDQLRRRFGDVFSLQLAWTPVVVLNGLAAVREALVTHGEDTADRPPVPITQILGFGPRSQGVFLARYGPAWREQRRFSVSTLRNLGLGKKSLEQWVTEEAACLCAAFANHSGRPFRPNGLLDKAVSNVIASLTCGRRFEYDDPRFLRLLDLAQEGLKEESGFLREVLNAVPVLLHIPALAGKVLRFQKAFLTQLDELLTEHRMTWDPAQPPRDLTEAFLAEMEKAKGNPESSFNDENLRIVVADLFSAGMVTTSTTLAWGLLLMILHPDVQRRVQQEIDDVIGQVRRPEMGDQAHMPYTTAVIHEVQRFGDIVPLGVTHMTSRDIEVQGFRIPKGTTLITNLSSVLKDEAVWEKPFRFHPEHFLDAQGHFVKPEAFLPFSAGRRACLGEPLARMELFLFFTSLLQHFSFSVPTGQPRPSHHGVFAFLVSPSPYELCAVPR
Protocol: as §1, §2, §3, §4

[5] = target: CYP3A4 (Homo sapiens (Human), UniProt P08684); test: as above; format: in vitro ADME; conditions: recombinant Bactosomes, 10 minutes
CYP3A4, sequence (P08684 whole entry): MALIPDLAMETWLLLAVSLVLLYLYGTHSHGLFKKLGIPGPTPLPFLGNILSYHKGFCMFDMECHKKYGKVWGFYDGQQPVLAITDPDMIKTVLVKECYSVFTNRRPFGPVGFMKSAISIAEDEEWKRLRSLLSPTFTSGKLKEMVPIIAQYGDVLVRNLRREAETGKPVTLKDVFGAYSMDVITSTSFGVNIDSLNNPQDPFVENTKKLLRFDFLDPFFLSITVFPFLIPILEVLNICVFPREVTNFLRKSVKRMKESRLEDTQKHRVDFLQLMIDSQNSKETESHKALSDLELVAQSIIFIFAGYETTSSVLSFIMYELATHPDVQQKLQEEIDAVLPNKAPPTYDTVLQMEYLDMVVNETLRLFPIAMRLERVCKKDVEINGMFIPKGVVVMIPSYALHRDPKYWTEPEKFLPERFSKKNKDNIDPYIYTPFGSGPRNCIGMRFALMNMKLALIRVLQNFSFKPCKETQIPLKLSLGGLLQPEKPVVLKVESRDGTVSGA
Protocol: as §1, §2, §3, §4

[6] = Rodent Pharmacokinetics Studies; format: in vivo, rat; conditions: rats
Excerpt: Absorption and metabolic stability were studied using an in vivo pharmacokinetics assay.
[…] Test compounds were formulated in 0.5% carboxymethylcellulose (CMC)/0.1% Tween-80 for administration via the oral route, or in 5% DMSO/10% solutol in saline for administration via the intravenous route. For compound HMC-C-01-A the oral administration was formulated in 2% dimethylacetamide/20% hydroxypropyl-β-cyclodextrin in water. Animals were given free access to food throughout the study except for fasting overnight and until 2 hours post dose on the day of dosing.
Blood samples were taken from the retro-orbital plexus at the following time points and placed in microtubes containing 20% K2EDTA solution:
Oral Dosing: predose; 0.25, 0.5, 1, 2, 4, 6, 8, 12 and 24 hours post dose.
Blood samples were centrifuged to obtain plasma, which was transferred to a separate container and frozen at −20° C.
For analysis, samples were thawed at room temperature and prepared by protein precipitation with acetonitrile spiked with internal standard (500 ng/mL glipizide) in the ratio 1:4 with plasma.
The pharmacokinetic parameters for the test compounds were calculated by Phoenix WinNonlin version 8.0 (Certara, CA) using standard non-compartmental methods. Peak plasma concentrations (Cmax) and time of the peak plasma concentration (Tmax) were the observed values. The area under the plasma concentration-time curve (AUC) was determined by use of the linear trapezoidal rule up to the last measurable concentration (AUClast) and thereafter by extrapolation of the terminal elimination phase to infinity (AUCinf). The elimination phase half-life (t1/2) was calculated as 0.693/kel.

[7] = system: Thp1 human monocytic cells; test: Thp1 Monocyte ATP Production Assay (ATPlite); format: cell-based; conditions: Homo sapiens, THP-1; Thp1 cells, 24 hour incubation; 9-point concentration range from 10 μM to 10 nM; mean of 2 independent experiments
Protocol: In vitro potency of test compounds was determined by incubation with Thp1 human monocytic cells and subsequent determination of Adenosine TriPhosphate (ATP) levels using firefly luciferase.
ATP is present in all metabolically active cells. When cells lose integrity, their ability to synthesise ATP is rapidly lost. […] See, e.g., Kang et al., 2015; Jiang et al., 2013. Levels of ATP can be monitored using a system based on firefly (Photinus pyralis) luciferase (see, e.g., Auld et al., 2009) using commercially available kits. A system known as ATPlite™ was using to measure effects of the test compounds on cellular viability in vitro. This one-step assay system is an adenosine triphosphate (ATP) monitoring system based on the production of light caused by the reaction of ATP from the cells with added luciferase and D-luciferin, as illustrated in the reaction scheme below:
Thp1 cells were plated at 112500 cells per well in 125 μL RPMI-1640 (no glucose) with 1% FBS in 96-well plates. Test compounds were prepared as 100 mM solutions in DMSO. These stock solutions were diluted in DMSO and then diluted 1000× in culture medium (RPMI) before being added directly to the wells so as to give the desired final compound concentration. After a 24 hour incubation at 37° C./5% CO2, ATPLite™ (Perkin Elmer) was added to each well (1:10 v/v, 10 μL). The plate was then incubated at room temperature for 5 minutes and the emitted light was quantified on Viewlux with a measurement time of 0.3 seconds and binning 4×4.
The average results for each test compound were expressed as a percent (%) of the average control value reflecting cell viability. The average values across the concentrations tested were then plotted and the IC50 for was calculated by fitting the data to a 4-parameter IC50 equation using software from Graf it (Erithacus Software). Each experiment was repeated twice and the data are presented as the mean IC50 from both experiments.

[8] = Aqueous solubility in FaSSIF; format: physicochemical
Protocol: Aqueous solubility was measured by equilibration of compounds with fasted state simulated intestinal fluid (FaSSIF) and quantified spectrophotometrically.
Preparation of blank FaSSIF: 0.21 g of sodium hydroxide (NaOH) pellets, 1.97 g of dihydrogen sodium phosphate (NaH2PO4.2H2O) and 3.09 g of sodium chloride (NaCl) were dissolved in 400 mL of deionised water. The pH was adjusted to 6.5 using 1 M hydrochloric acid and further deionised water added to a final volume of 500 mL.
Preparation of FaSSIF: 0.056 g of SIF Powder (containing sodium taurocholate and lecithin) (Pharses A G) was dissolved in 25 mL of blank FaSSIF and stirred until the powder was completely dissolved. The solution was allowed to stand for 2 hours during which it became opalescent; it was used within 24 hours. The final solution composition was characterised as follows: • Sodium taurocholate: 3 mM • Lecithin: 0.75 mM • Osmolarity: 270±10 mOsmol • pH: 6.5
The optical density was measured at the end of the incubation period for test compounds and a reference used to determine solubility. In brief, two samples were prepared for each determination: a reference sample consisting of a stock solution of test compound in DMSO diluted in system solution (a phosphate free, low absorption buffer) and propanol; and a test sample (prepared in triplicate) consisting of 0.5 mL FaSSIF spiked with test compound at 0.2 mM. Each sample was incubated at room temperature for 16 hours with constant shaking at 250 rpm. At the end of the incubation period, 0.3 mL of each sample was filtered through a pION filter plate (PION, Woburn MA), diluted 1:1 with propanol and scanned using UV spectrophotometry at Amax ([…]) using a Spectra Max Plus—Version 2.1000 (Molecular Devices, Sunnyvale, CA), with pSOL Explorer solubility determination software (pION, Woburn, MA).
FaSSIF solubility was calculated using the following formula:
[formula] • wherein: • “OD” is the optical density; • “Cr” is the concentration of the reference (33.4 μM); and • “molecular weight” is for the test compound (e.g., 381.44 for ABD735).

[9] = target: hERG (Homo sapiens (Human), UniProt Q12809); test: hERG Ion Channel binding assay (3H astemizole displacement); conditions: human, membranes of HEK293 cells stably expressing hERG, pH 7.4, probe 3H astemizole (1.5 nM); 30 μM; displacement of 3H astemizole, hERG-HEK293 membranes
hERG, sequence (Q12809 whole entry): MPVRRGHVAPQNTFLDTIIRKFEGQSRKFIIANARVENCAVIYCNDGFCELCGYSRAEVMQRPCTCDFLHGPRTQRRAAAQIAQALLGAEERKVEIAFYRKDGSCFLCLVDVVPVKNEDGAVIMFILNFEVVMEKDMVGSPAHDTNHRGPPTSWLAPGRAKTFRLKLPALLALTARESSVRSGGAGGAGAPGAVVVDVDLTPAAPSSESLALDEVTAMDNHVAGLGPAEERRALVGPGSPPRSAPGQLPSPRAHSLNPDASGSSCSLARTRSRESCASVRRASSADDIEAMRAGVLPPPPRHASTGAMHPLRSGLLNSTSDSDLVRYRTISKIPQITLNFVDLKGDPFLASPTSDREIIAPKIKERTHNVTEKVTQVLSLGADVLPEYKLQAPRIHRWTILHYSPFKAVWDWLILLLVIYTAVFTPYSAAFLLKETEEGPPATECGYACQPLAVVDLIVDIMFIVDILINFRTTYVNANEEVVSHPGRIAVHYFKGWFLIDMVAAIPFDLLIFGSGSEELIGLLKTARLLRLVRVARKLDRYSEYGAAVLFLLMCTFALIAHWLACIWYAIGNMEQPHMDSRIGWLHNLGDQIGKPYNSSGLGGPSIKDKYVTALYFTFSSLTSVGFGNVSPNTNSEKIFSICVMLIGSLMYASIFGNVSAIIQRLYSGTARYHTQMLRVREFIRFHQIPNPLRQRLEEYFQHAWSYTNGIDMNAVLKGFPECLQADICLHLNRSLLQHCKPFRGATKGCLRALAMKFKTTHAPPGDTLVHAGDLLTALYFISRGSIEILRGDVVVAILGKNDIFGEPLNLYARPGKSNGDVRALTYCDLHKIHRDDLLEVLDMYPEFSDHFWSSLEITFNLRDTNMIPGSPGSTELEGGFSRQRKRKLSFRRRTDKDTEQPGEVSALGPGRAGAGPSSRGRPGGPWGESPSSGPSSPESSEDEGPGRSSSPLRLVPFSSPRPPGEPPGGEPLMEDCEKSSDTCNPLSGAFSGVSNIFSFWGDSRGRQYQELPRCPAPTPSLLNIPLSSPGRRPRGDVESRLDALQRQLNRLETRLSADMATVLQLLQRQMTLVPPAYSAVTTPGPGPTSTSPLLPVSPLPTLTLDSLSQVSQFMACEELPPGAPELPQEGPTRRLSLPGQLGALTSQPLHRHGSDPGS
Protocol: (§5) The activity of the compounds against the hERG ion channel was tested using a binding assay in stably transfected Human Embryonic Kidney cells (hERG-HEK293). hERG-HEK293 cells were cultured in MEM medium (Invitrogen)+10% FBS, glutamine and non-essential amino acids at 37° C. To prepare membranes, cells were homogenised on ice, centrifuged at 650×g for 10 minutes at +4° C., and the resulting supernatant centrifuged at 48000×g for 10 minutes at +4° C. The pellet was resuspended in ice-cold 50 mM Tris-HCl buffer, 5 mM KCl (pH 8.5) and stored frozen in aliquots until use.
(§6) For binding assays, membranes were thawed, re-suspended in assay buffer (10 mM HEPES pH 7.4, 0.1% BSA, 5 mM potassium chloride, 0.8 mM magnesium chloride, 130 mM sodium chloride, 1 mM sodium-EGTA, 10 mM glucose) and incubated with ^3H astemizole (1.5 nM), and with or without test compound at 25° C. for 60 minutes. Binding was determined following filtration of the membranes and washing in Tris-HCl buffer by scintillation counting of ^3H astemizole.
(§7) The degree of binding of compounds to the hERG ion channel (%) was obtained by measuring the binding of ^3H astemizole and its displacement by test compound. A value of 0% indicates no binding and a value of 100% indicates complete displacement of the radiolabelled ligand.

[10] = target: hERG ion channel (Homo sapiens (Human), UniProt Q12809); test: as above
hERG ion channel, sequence (Q12809 whole entry): as above
Protocol: as §5, §6, §7

CYP1A2, sequence (P05177 whole entry, canonical isoform): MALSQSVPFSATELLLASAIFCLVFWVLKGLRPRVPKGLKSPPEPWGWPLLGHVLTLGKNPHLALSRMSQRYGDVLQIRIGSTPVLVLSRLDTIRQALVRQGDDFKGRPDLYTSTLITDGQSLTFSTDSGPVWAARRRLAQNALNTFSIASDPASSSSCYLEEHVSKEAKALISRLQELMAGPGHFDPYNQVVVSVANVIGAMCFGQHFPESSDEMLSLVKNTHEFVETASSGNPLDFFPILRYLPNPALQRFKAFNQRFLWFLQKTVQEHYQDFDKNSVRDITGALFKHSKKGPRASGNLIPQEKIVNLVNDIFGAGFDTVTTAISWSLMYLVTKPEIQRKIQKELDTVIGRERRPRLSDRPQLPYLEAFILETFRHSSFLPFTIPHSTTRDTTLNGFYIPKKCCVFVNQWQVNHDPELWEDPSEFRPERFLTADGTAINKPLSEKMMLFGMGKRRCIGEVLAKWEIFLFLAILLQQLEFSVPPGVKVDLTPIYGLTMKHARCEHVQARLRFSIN

**Q.** With CC1(O)CCC(NS(=O)(=O)c2ccc(-c3ccc(C#N)cc3Cl)cc2)CC1 (centres unmarked) [HMC-C-09-A, reference compound] as the compound, how does the IC50 [1] read?
**A.** 23 µM

**Q.** What about the IC50 [2] of the same compound?
**A.** > 50 µM

**Q.** What about the IC50 [3] of the same compound?
**A.** 34 µM

**Q.** And the IC50 [4]?
**A.** > 50 µM

**Q.** And the IC50 [5]?
**A.** 33 µM

**Q.** Which results are given for CC1(O)CCC(NS(=O)(=O)c2ccc(-c3cc(F)c(F)cc3F)cc2)CC1 (centres unmarked) [HMC-C-10-B, reference compound]?
**A.** IC50 [1]: > 16 µM; IC50 [2]: 8.5 µM; IC50 [3]: 2.4 µM; IC50 [4]: > 16 µM; IC50 [5]: 9.2 µM

**Q.** Which IC50 [1] does the source give for CC1(O)CCC(NS(=O)(=O)c2ccc(-c3ccc(Cl)cc3C#N)c(Cl)c2)CC1 (centres unmarked) [HMC-C-11-A, reference compound] here?
**A.** 11 µM

**Q.** What about the IC50 [2] of the same compound?
**A.** 5.1 µM

**Q.** What about the IC50 [3] of the same compound?
**A.** 2.7 µM

**Q.** And the IC50 [4]?
**A.** 9.3 µM

**Q.** What about the IC50 [5] of the same compound?
**A.** 12 µM

**Q.** Which results are given for CC1(O)CCC(NS(=O)(=O)c2ccc(-c3ncc(Cl)cc3C#N)cc2)CC1 (centres unmarked) [HMC-N-05-A, reference compound]?
**A.** IC50 [1]: 36 µM; IC50 [2]: > 50 µM; IC50 [3]: 27 µM; IC50 [4]: > 50 µM; IC50 [5]: > 50 µM; T1/2 ([6]; 5% DMSO/10% solutol in saline both routes (footnote 1)): 48 min; Bioavail, F ([6]; 5% DMSO/10% solutol in saline for both oral and intravenous routes (footnote 1)): 88%; i.v. AUC ([6]; intravenous, 5% DMSO/10% solutol in saline (footnote 1)): 891 ng/mL/min; p.o. AUC ([6]; oral, 5% DMSO/10% solutol in saline (footnote 1)): 3937 ng/mL/min

**Q.** For CC(=O)N1CCC(C(C)S(=O)(=O)c2ccc(-c3ccc(F)cc3F)cc2)CC1 (centres unmarked) [NASMP-17, 1-(4-(1-((2′,4′-Difluoro-[1,1′-biphenyl]-4-yl)sulfonyl)ethyl)piperidin-1-yl)ethan-1-one], which IC50 [7] is on record?
**A.** 4.6 µM

**Q.** What about the “solubility (in words)” value [8] of the same compound?
**A.** particularly good solubility

**Q.** What about the solubility at 16 h ([8]; kinetic from dmso stock, pH 6.5, 16 hours, room temperature) of the same compound?
**A.** 0.077 mg/mL (≈ 189 µM)

**Q.** What about the inhibition at 60 min, 30 µM [9] of the same compound?
**A.** 14%

**Q.** And the “cardiac safety profile, hERG (in words)” value [10]?
**A.** particularly positive profile

— patent US12162836B2, “N-acyl-{4-[(4-aryl-phenyl)sulfonylmethyl]piperidine} compounds and their therapeutic use” (Modern Biosciences Limited, priority 2019, dated 2024)
